Patent US11578084B2, “Condensed ring compounds having dopamine D3 receptor antagonistic effect” (Shionogi & Co., Ltd., priority 2018, dated 2023)

What was measured:
[1] = molecular target: human recombinant dopamine D3 receptor (Homo sapiens (Human), UniProt P35462); experiment: Test of binding inhibition for dopamine D3 receptor ([3H]-Methylspiperone SPA); settings: Jump-In HEK cell membranes, 2 nM [3H]-Methylspiperone, 120 min at 25° C.; read-out: hD3_Ki
Method: (§1) (Experimental Conditions)
Cell membranes: Jump-In HEK cell membranes expressing human recombinant dopamine D3 receptor (4 μg/well)
(§2) Non-specific ligand: (final concentration) 10 μM Butaclamol [(+)-Butaclamol Hydrochloride, D033, Sigma]
(§3) SPA beads solution: SPA beads [WGA PVT SPA Scintillation Beads, RPNQ0001 (500 mg), RPNQ0060 (2 g), PerkinElmer] (0.2 mg/well)
(§4) Incubation time and temperature: 120 min at 25° C.
(§5) Butaclamol or the compounds of the present invention were weighed and DMSO was added to make a 10 mM solution. This solution was diluted to each concentration.
[^3H]-Methylspiperone was weighed and the buffer solution was added to make a 6 nM solution.
(§6) SPA beads were weighed and stirred in water to make a 50 mg/mL solution. Using this solution, a mixture with the cell membranes was prepared.
(§7) Jump-In HEK Cell membranes (final reaction amount: 4 μg protein/well), the SPA beads solution (final reaction amount: 0.2 mg/well) and the buffer solution were mixed and the mixed solution was left still for 1 hour or more at 4° C. Then, 50 μL of the mixture was added to each well of the plate. In addition, 25 μL of 6 nM [^3H]-Methylspiperone (final concentration: 2 nM) was added to each well. […] Non-specific binding was calculated based on the radioactivity of [^3H]-Methylspiperone in the presence of 10 μM non-labeled Butaclamol. The total binding was calculated using the radioactivity of [H]-Methylspiperone in the absence of the compounds of the present invention (vehicle). The Ki values were calculated from dose-response curves.
(§8) Binding activities of the compounds of the present invention were calculated from the following Binding Inhibition Rate (%): Inhibition Rate (%)=[1−(c−a)/(b−a)]×100 • a: Average cpm of non-specific binding • b: Average cpm of total binding • c: Cpm in the presence of each test compound

[2] = molecular target: human recombinant dopamine D2 receptor (Homo sapiens (Human), UniProt P14416); experiment: Test of binding inhibition for dopamine D2 receptor ([3H]-Methylspiperone SPA); settings: [3H]-Methylspiperone 1.2 nM, Jump-In HEK cell membranes; read-out: hD2_Ki
human recombinant dopamine D2 receptor, sequence (P14416 whole entry): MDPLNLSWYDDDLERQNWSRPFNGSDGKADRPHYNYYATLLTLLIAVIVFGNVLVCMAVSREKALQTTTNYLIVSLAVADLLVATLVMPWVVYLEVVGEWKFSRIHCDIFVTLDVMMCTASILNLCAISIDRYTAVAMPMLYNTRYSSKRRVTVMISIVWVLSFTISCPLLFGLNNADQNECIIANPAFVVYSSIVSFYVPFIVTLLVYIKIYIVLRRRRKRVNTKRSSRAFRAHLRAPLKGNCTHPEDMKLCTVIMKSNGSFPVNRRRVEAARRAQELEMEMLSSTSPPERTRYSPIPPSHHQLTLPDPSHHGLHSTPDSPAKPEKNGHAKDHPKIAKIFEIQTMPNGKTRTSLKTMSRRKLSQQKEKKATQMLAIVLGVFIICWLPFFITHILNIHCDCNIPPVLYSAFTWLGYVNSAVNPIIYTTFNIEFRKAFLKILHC
Method: as §1
Cell membranes: Jump-In HEK cell membranes expressing human recombinant dopamine D2 receptor (2 μg/well)
as §2, §3, §4, §5, §6
as §7, with “amount: 2” for “amount: 4”, “were mixed,” for “were mixed”, “plate.” for “plate. In addition, 25 μL of 6 nM [^3H]-Methylspiperone (final concentration: 2 nM) was added to each well.”, “of [^3H]-Methylspiperone” for “of [H]-Methylspiperone”, “invention (Vehicle).” for “invention (vehicle).”
as §8

human recombinant dopamine D3 receptor, sequence (P35462 whole entry): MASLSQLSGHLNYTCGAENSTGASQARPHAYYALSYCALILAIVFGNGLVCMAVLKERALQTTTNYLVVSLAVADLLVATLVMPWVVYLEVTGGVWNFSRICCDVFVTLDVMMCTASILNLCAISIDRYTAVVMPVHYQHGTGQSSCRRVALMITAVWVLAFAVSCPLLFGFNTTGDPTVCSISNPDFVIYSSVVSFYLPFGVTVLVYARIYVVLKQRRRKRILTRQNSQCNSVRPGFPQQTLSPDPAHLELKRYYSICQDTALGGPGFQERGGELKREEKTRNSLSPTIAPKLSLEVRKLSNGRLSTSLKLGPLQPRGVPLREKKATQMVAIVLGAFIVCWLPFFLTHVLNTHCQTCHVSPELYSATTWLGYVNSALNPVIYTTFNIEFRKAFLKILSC

Compound	Ki [1]	Ki [2]
Cc1ncc(CC(=O)N[C@H]2CC[C@H](CCN3CCc4ccc(CCC(F)(F)F)nc4CC3)CC2)cn1 [I′-16]	0.36 nM	1800 nM
Cc1cc(CC(=O)N[C@H]2CC[C@H](CCN3CCc4ccc(CCC(F)(F)F)nc4CC3)CC2)on1 [I′-17]	0.15 nM	> 2300 nM
Cn1cc(CC(=O)N[C@H]2CC[C@H](CCN3CCc4ccc(CCC(F)(F)F)nc4CC3)CC2)c(F)n1 [I′-18]	0.38 nM	1000 nM
Cn1ncc(CC(=O)N[C@H]2CC[C@H](CCN3CCc4ccc(CCC(F)(F)F)nc4CC3)CC2)c1F [I′-19]	0.36 nM	1100 nM
Cc1ncc(/C=C/C(=O)N[C@H]2CC[C@H](CCN3CCc4ccc(CCC(F)(F)F)nc4CC3)CC2)cn1 [I′-20]	0.38 nM	260 nM
Cc1cc(CC(=O)N[C@H]2CC[C@H](CCN3CCc4ccc(CCC(F)(F)F)nc4CC3)CC2)no1 [I′-21]	1 nM	> 2300 nM
Cn1ncc(CC(=O)N[C@H]2CC[C@H](CCN3CCc4nc(OCC(F)(F)F)sc4CC3)CC2)c1F [I′-22]	0.1 nM	2000 nM
Cn1ncc(CC(=O)N[C@H]2CC[C@](F)(CCN3CCc4nc(OCC(F)(F)F)sc4CC3)CC2)c1F [I′-23]	0.28 nM	> 2200 nM
Cn1cc(CC(=O)N[C@H]2CC[C@H](CCN3CCc4nc(OCC(F)(F)F)sc4CC3)CC2)c(F)n1 [I′-24]	0.17 nM	630 nM
Cn1cc(CC(=O)N[C@H]2CC[C@](F)(CCN3CCc4nc(OCC(F)(F)F)sc4CC3)CC2)c(F)n1 [I′-25]	0.29 nM	730 nM
Cn1ncc(CC(=O)N[C@H]2CC[C@H](CCN3CCc4nc(OCC(C)(F)F)sc4CC3)CC2)c1F [I′-26]	0.17 nM	870 nM
Cn1cc(CC(=O)N[C@H]2CC[C@H](CCN3CCc4nc(OCC(C)(F)F)sc4CC3)CC2)c(F)n1 [I′-27]	0.09 nM	> 2200 nM
Cn1ncc(CC(=O)N[C@H]2CC[C@H](CCN3CCc4nc(OCC(F)F)sc4CC3)CC2)c1F [I′-28]	0.21 nM	1500 nM
Cn1ncc(CC(=O)N[C@H]2CC[C@](F)(CCN3CCc4nc(OCC(F)F)sc4CC3)CC2)c1F [I′-29]	3.1 nM	> 2200 nM
Cn1cc(CC(=O)N[C@H]2CC[C@H](CCN3CCc4nc(OCC(F)F)sc4CC3)CC2)c(F)n1 [I′-30]	0.19 nM	1600 nM
Cn1cc(CC(=O)N[C@H]2CC[C@](F)(CCN3CCc4nc(OCC(F)F)sc4CC3)CC2)c(F)n1 [I′-31]	0.57 nM	1300 nM
Cn1cc(CC(=O)N[C@H]2CC[C@H](CCN3CCc4ccc(OCC(F)F)nc4CC3)CC2)c(F)n1 [I′-32]	0.16 nM	1200 nM
Cn1ncc(CC(=O)N[C@H]2CC[C@H](CCN3CCc4ccc(OCC(F)F)nc4CC3)CC2)c1F [I′-33]	0.85 nM	1600 nM
Cn1ncc(CC(=O)N[C@H]2CC[C@](F)(CCN3CCc4ccc(OCC(F)F)nc4CC3)CC2)c1F [I′-35]	0.41 nM	1800 nM
Cn1ncc(CC(=O)N[C@H]2CC[C@H](CCN3CCc4nc(OCC(F)(F)F)sc4CC3)CC2)n1 [I′-36]	0.071 nM	740 nM
Cn1ncc(CC(=O)N[C@H]2CC[C@H](CCN3CCc4nc(OCC(F)F)sc4CC3)CC2)n1 [I′-40]	0.19 nM	1900 nM
Cn1ncc(CC(=O)N[C@H]2CC[C@H](CCN3CCc4ccc(OCC(C)(F)F)nc4CC3)CC2)n1 [I′-42]	0.016 nM	500 nM
Cn1ncc(CC(=O)N[C@H]2CC[C@](F)(CCN3CCc4ccc(OCC(F)(F)F)nc4CC3)CC2)n1 [I′-43]	0.078 nM	350 nM
Cn1ncc(CC(=O)N[C@H]2CC[C@H](CCN3CCc4ccc(OCC(F)F)nc4CC3)CC2)n1 [I′-44]	0.11 nM	2000 nM
Cc1ncc(/C=C/C(=O)N[C@H]2CC[C@H](CCN3CCc4sc(C5CC(F)(F)C5)nc4C3)CC2)cn1 [I′-45]	0.11 nM	210 nM
Cc1ncc(OCC(=O)N[C@H]2CC[C@](F)(CCN3CCc4ccc(OCC(C)(F)F)nc4CC3)CC2)cn1 [I′-46]	0.33 nM	260 nM
